Consider 27 compounds from patent US20010044445A1, “AZOLE INHIBITORS OF CYTOKINE PRODUCTION” (priority 1999, published 2001).

In data set [1] the test system is Human peripheral blood mononuclear cells. The experiment in a line: Human Concanavalin-A Proliferation Assay (Con HU Assay). The format is cell-based. The following applies: Homo sapiens, PBMC, concanavalin-A stimulated human PBMC; for IC50: tritiated thymidine; for inhibition at 10 µM / inhibition at 100 µM / inhibition at 1 µM: 72 h, 3 days, read-out: % Inhibition of proliferation (at concentrations of 1,10, or 100 μm); for inhibition at 10 µM: concentration 10 μm (in parentheses in the cell); for inhibition at 100 µM: concentration 100 μm (in parentheses in the cell); for inhibition at 1 µM: concentration 1 μm (in parentheses in the cell). In short, it runs like this:
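Histopaque-isolated human PBMC (50,000/well) were pre-incubated 15 min with compounds, then stimulated with concanavalin-A at 2.5 μg/ml final for 3 days at 37 °C, 5% CO2. Proliferation measured by 6 h pulse with 0.5 μCi/well [3H]thymidine and beta counting.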

Turning to `O=C(Nc1ccc(-n2nc(C(F)(F)F)cc2-c2cccnc2)cc1)c1ccccc1F` [Example 310, 2-fluoro-N-(4-(5-(3-pyridinyl)-3-(trifluoromethyl)-1H-pyrazol-1-yl)phenyl)benzamide], the melting point was in the range of 138 to 140 °C. The compound also came in with a half-maximal inhibitory concentration (IC50) in data set [1] of 335 nM.

`O=C(Nc1ccc(-n2nc(C(F)(F)F)cc2C(F)(F)F)cc1)c1cc(F)c(F)cc1F` [Example 228, N-[4-[3,5-bis(trifluoromethyl)-1H-pyrazol-1-yl]phenyl]-2,4,5-trifluorobenzamide] had a melting point of 109 to 111 °C. In addition, in data set [1], the inhibition at 10 µM amounted to 99% and 147 nM corresponded to half-maximal inhibition (IC50).

Compound `O=C(Nc1ccc(-n2nc(C(F)(F)F)cc2C(F)(F)F)cc1)c1cccc(Cl)c1` [Example 130, N-[4-[3,5-bis(trifluoromethyl)-1H-pyrazol-1-yl]phenyl]-3-chlorobenzamide] showed a melting point of 142 to 144 °C. Further, in data set [1], the inhibition at 100 µM amounted to 100% and the 50% inhibitory concentration (IC50) came out at 336 nM.

Turning to `O=C(Nc1ccc(-n2nc(C(F)(F)F)cc2C(F)(F)F)cc1)C1CCOC1` (stereo not drawn) [Example 243, N-[4-[3,5-bis(trifluoromethyl)-1H-pyrazol-1-yl]phenyl]tetrahydro-3-furancarboxamide], the melting point was in the range of 193 to 194 °C. Also, in data set [1], the inhibition at 10 µM was found to be 99% and the midpoint of inhibition, the IC50, lay at 390 nM.

The compound `Cc1nnsc1C(=O)Nc1ccc(-n2nc(C(F)(F)F)cc2OC(F)F)cc1` [Example 323, N-(4-(5-(difluoromethoxy)-3-(trifluoromethyl)-1H-pyrazol-1-yl)phenyl)-4-methyl-1,2,3-thiadiazole-5-carboxamide] displayed a melting point of 122 to 123 °C. The compound further showed a 50% inhibitory concentration (IC50) in data set [1] of 238 nM.

`O=C(Nc1ccc(-n2nc(C(F)(F)F)cc2C(F)(F)F)cc1)c1ccc(F)cc1C(F)(F)F` [Example 201, N-[4-[3,5-bis(trifluoromethyl)-1H-pyrazol-1-yl]phenyl]-4-fluoro-2-(trifluoromethyl)benzamide] displayed a melting point of 178 to 179 °C. Further, in data set [1], the inhibition at 10 µM was found to be 100% and the IC50 worked out at 364 nM.

With `O=C(Nc1ccc(-n2nc(C(F)(F)F)cc2C(F)(F)F)cc1)C1(O)CC1` [Example 17, N-[4-[3,5-bis(trifluoromethyl)-1H-pyrazol-1-yl]phenyl]-1-hydroxycyclopropanecarboxamide], the melting point was 198 to 200 °C. Further, the inhibition at 1 µM in data set [1] worked out at 18%.

The compound `O=C(Nc1ccc(-n2nc(C(F)(F)F)cc2C(F)(F)F)cc1)c1c(Cl)ccc([N+](=O)[O-])c1Cl` [Example 216, N-[4-[3,5-bis(trifluoromethyl)-1H-pyrazol-1-yl]phenyl]-2,6-dichloro-3-nitrobenzamide] registered a melting point of 160 to 161 °C. In addition, in data set [1], the inhibition at 10 µM worked out at 100% and half-maximal inhibition (IC50) required 267 nM.

Compound `O=C(Nc1ccc(-n2nc(C(F)(F)F)cc2-c2cccs2)cc1)c1ccncc1F` [Example 311, 3-fluoro-N-(4-(5-(2-thienyl)-3-(trifluoromethyl)-1H-pyrazol-1-yl)phenyl)isonicotinamide] yielded a melting point of 153 to 155 °C. Moreover, the midpoint of inhibition in data set [1], the IC50, lay at 323 nM.

Turning to `N#Cc1ccc(C(=O)Nc2cccc(-n3nc(C(F)(F)F)cc3C(F)(F)F)c2)cc1` [Example 238, N-[3-[3,5-bis(trifluoromethyl)-1H-pyrazol-1-yl]phenyl]-4-cyanobenzamide], the melting point lay in the range of 133 to 134 °C. Besides, the inhibition at 1 µM in data set [1] stood at 3%.

As to `O=C(Nc1ccncc1)c1ccc(-n2nc(C(F)(F)F)cc2C(F)(F)F)cc1` [Example 194, 4-[3,5-Bis(trifluoromethyl)-1H-pyrazol-1-yl]-N-(4-pyridinyl)benzamide], the melting point lay within 234 to 235 °C. In data set [1], the inhibition at 1 µM is 23%.

In the case of `CCOC(=O)c1cccc(NC(=O)Nc2ccc(-n3nc(C(F)(F)F)cc3C(F)(F)F)cc2)c1` [Example 13, ethyl 3-[[[[4-[3,5-bis(trifluoromethyl)-1H-pyrazol-1-yl]phenyl]amino]carbonyl]amino]-benzoate], the melting point was 211 to 212 °C. For the same compound, in data set [1], the inhibition at 100 µM was 99% and the IC50 is 2840 nM.

Regarding `COc1cc(C(F)(F)F)nn1-c1ccc(NC(=O)c2snnc2C)cc1` [Example 314, N-(4-(5-methoxy-3-(trifluoromethyl)-1H-pyrazol-1-yl)phenyl)-4-methyl-1,2,3-thiadiazole-5-carboxamide], the melting point was 159 to 160 °C. In data set [1], 246 nM corresponded to half-maximal inhibition (IC50).

The compound `COc1ccc(Br)c(C(=O)Nc2ccc(-n3nc(C(F)(F)F)cc3C(F)(F)F)cc2)c1` [Example 219, N-[4-[3,5-bis(trifluoromethyl)-1H-pyrazol-1-yl]phenyl]-2-bromo-5-methoxybenzamide] yielded a melting point of 179 to 181 °C. Further, in data set [1], the inhibition at 10 µM was determined as 100% and it took 214 nM to reach half-maximal inhibition (IC50).

As for `CC(=O)Oc1ccccc1C(=O)Nc1ccc(-n2nc(C(F)(F)F)cc2C(F)(F)F)cc1` [Example 76, 2-(Acetyloxy)-N-[4-[3,5-bis(trifluoromethyl)-1H-pyrazol-1-yl]phenyl]benzamide], the melting point lay within 159 to 161 °C. In data set [1], the inhibition at 100 µM came to 100% and the IC50 turned out to be 3170 nM.

Turning to `O=C(Nc1ccc(-n2nc(C(F)(F)F)cc2C(F)(F)F)cc1)c1ccc(I)cc1` [Example 69, N-[4-[3,5-bis(trifluoromethyl)-1H-pyrazol-1-yl]phenyl]-4-iodobenzamide], the melting point was in the range of 196 to 198 °C. In data set [1], the inhibition at 100 µM amounted to 98% and the IC50 worked out at 506 nM.

Compound `O=C(Nc1ccc(-n2nc(C(F)(F)F)cc2C(F)(F)F)cc1)c1cc(Cl)ccc1Cl` [Example 208, N-[4-[3,5-bis(trifluoromethyl)-1H-pyrazol-1-yl]phenyl]-2,5-dichlorobenzamide] yielded a melting point of 154 to 156 °C. In data set [1], the inhibition at 10 µM is 99% and 149 nM corresponded to half-maximal inhibition (IC50).

Regarding `O=C(Nc1ccc(-n2nc(C(F)(F)F)cc2C(F)(F)F)cc1)c1ccc(O)c(O)c1` [Example 181, N-[4-[3,5-bis(trifluoromethyl)-1H-pyrazol-1-yl]phenyl]-3,4-dihydroxybenzamide], the melting point is 233 to 235 °C. Besides, in data set [1], the inhibition at 10 µM came out at 100% and the half-maximal inhibitory concentration (IC50) came to 2240 nM.

Turning to `Cn1cccc1C(=O)Nc1ccc(-n2nc(C(F)(F)F)cc2C(F)(F)F)cc1` [Example 248, N-[4-[3,5-bis(trifluoromethyl)-1H-pyrazol-1-yl]phenyl]-1-methyl-1H-pyrrole-2-carboxamide], the melting point was 148 to 149 °C. Also, in data set [1], the inhibition at 10 µM was found to be 100% and half-maximal inhibition (IC50) required 143 nM.

`Nc1ccccc1C(=O)Nc1ccc(-n2nc(C(F)(F)F)cc2C(F)(F)F)cc1` [Example 163, 2-amino-N-[4-[3,5-bis(trifluoromethyl)-1H-pyrazol-1-yl]phenyl]benzamide] came in with a melting point of 204 to 206 °C. In data set [1], the inhibition at 100 µM was determined as 98% and the IC50 came out at 235 nM.

`Cc1ccc(C(=O)Nc2ccc(-n3nc(C(F)(F)F)cc3C(F)(F)F)cc2)cc1` [Example 100, N-[4-[3,5-bis (trifluoromethyl)-1H-pyrazol-1-yl]phenyl]-4-methylbenzamide] registered a melting point of 225 to 226 °C. In addition, in data set [1], the inhibition at 100 µM was found to be 75% and the IC50 worked out at 2150 nM.

On to `O=C(Nc1ccc(-n2nc(C(F)(F)F)cc2Br)cc1)c1cccc(F)c1F` [Example 348, N-(4-(5-bromo-3-(trifluoromethyl)-1H-pyrazol-1-yl)phenyl)-2,3-difluorobenzamide], for which the melting point is 109 to 112 °C. This compound had an IC50 in data set [1] of 114 nM.

For the compound `O=C(Nc1ccc(-n2nc(C(F)(F)F)cc2C(F)(F)F)nc1)c1ccccc1Cl` [Example 260, N-[2-[3,5-bis(trifluoromethyl)-1H-pyrazol-1-yl]-5-pyridinyl]-2-chlorobenzamide], the melting point is 156 to 159 °C. Moreover, in data set [1], the inhibition at 10 µM amounted to 96% and the midpoint of inhibition, the IC50, lay at 369 nM.

As for `O=C(Nc1cccc(-n2nc(C(F)(F)F)cc2C(F)(F)F)c1)c1ccc(F)cc1` [Example 202, N-[3-[3,5-bis(trifluoromethyl)-1H-pyrazol-1-yl]phenyl]-4-fluorobenzamide], the melting point is 150 to 152 °C. Besides, in data set [1], the inhibition at 1 µM came out at 6%.

`Cc1ccsc1C(=O)Nc1ccc(-n2nc(C(F)(F)F)cc2C(F)(F)F)cc1` [Example 162, N-[4-[3,5-bis(trifluoromethyl)-1H-pyrazol-1-yl]phenyl]-3-methyl-2-thiophenecarboxamide] showed a melting point of 185 to 188 °C. In data set [1], the inhibition at 10 µM turned out to be 100% and it took 44 nM to reach half-maximal inhibition (IC50).

Regarding `O=C(Nc1ccc(-n2nc(C(F)(F)F)cc2C(F)(F)F)cc1)c1cc(F)c(Cl)cc1F` [Example 225, N-[4-[3,5-bis(trifluoromethyl)-1H-pyrazol-1-yl]phenyl]-4-chloro-2,5-difluorobenzamide], the melting point fell in the range of 160 to 162 °C. Further, in data set [1], the inhibition at 10 µM stood at 98% and the IC50 came to 154 nM.

For the compound `O=C(Nc1ccc(-n2nc(C(F)(F)F)cc2C(F)(F)F)cc1)c1ccccc1Br` [Example 147, N-[4-[3,5-bis(trifluoromethyl)-1H-pyrazol-1-yl]phenyl]-2-bromobenzamide], the melting point lay within 182 to 184 °C. Further, in data set [1], the inhibition at 100 µM came to 99% and the IC50 stood at 71 nM.
